According to patent US12629419B2, “Prevention or mitigation of T-cell engaging agent-related adverse effects” (Hoffmann-La Roche Inc., priority 2020, dated 2026):
“Also recorded” adds a separate entry of the source.

Assays:
CD4+ and CD8+ T cells [1] = test: T cell activation (CD25, CD69 by flow cytometry) in CEA-TCB killing assay; type: cell-based; settings: 10 nM CEA-TCB
CD19+ B cells = test: CD20-TCB-induced B cell depletion in non-tumor bearing humanized NSG mice; type: in vivo; settings: 48 and 72 hours; 0.15 mg/kg CD20-TCB; p.o. 2, 5, 10 mg/kg sirolimus, 10 mg/kg everolimus, 10 mg/kg temsirolimus, ruxolitinib
Experimental: FIG. 95. In vivo experiment timelines and dosing schedule.
FIG. 96. […] The proportion of CD19+ B cells among human CD45+(huCD45) cells was measured by flow cytometry in the blood collected 48 hrs and 72 hrs post-treatment with CD20-TCB. Mean of n=4 mice or n=3 mice (everolimus group)+/−SEM. The statistical comparison to the vehicle group is summarized table (C) where the p values were calculated by Kruskal-Wallis test.
Different doses of mTOR, JAK and Src kinase inhibitors were tested to determine the optimal dose that reduces CD20-TCB-induced cytokine release while minimally interfering with B cell depletion. […] The doses of 30 and 60 mg/kg were tested for ruxolitinib and the doses of 10 and 50 mg/kg were tested for dasatinib. To reproduce the clinical route of administration, the different kinase inhibitors were given orally (p.o.) once or twice per day as depicted in FIG. 95. Mice were bled 4 hours and 24 hours after the treatment with CD20-TCB (FIG. 95) to collect serum for cytokine level measurements by Luminex. Additionally, blood was collected 48 hours and 72 hours (termination) post treatment with CD20-TCB to measure the percentage of CD19+ B cells among human CD45+ cells by flow cytometry (FIG. 95).

[2] = tested on: CD20-TCB-induced cytokine release; test: CD20-TCB killing assay, inhibitors added after 18 hours: cytokine release from pre-activated effector cells; type: cell-based; settings: 100 nM added at 18 h
Experimental: (§1) FIG. 34. In vitro killing assay set-up. Cell Trace™ Violet (CTV) labelled WSU DLCL2 tumor cells were co-cultured together with PBMCs [E:T=200′000:20′000] and stimulated with CD20-TCB for 18 h.
(§2) In this assay, CTV labelled WSU DLCL2 tumors cells were co-cultured with PBMCs in the presence of escalating doses of CD20-TCB for 18 hours.

CD4+ and CD8+ T cells [3] = test: CD20-TCB killing assay, inhibitors added after 18 hours: T cell activation; type: cell-based; settings: 100 nM added at 18 h
Experimental: as §1, §2

[4] = tested on: CD20-TCB-induced cytokine release; test: CD20-TCB-induced cytokine release (Luminex); type: cell-based; settings: 24 h; escalating CD20-TCB / 1 nM CD20-TCB; fixed compound concentrations
Experimental: A similar experiment was conducted with another TCB.
A similar experiment was conducted with CD20-TCB.
A similar experiment was conducted with CD20-TCB. WSU DLCL2 cells were co-cultured together with PBMCs in the presence of 1 nM CD20-TCB, and escalating everolimus doses ranging from 0 nM to 1000 nM (FIG. 13).
A similar experiment was conducted with CD20-TCB. WSU DLCL2 cells were co-cultured together with PBMCs in the presence of 1 nM CD20-TCB, and escalating ruxolitinib doses ranging from 0 nM to 1000 nM (FIG. 13).
(§3) A similar experiment was conducted with another TCB. […] The killing of B cells was measured as a readout for the impact of the various compounds on TCB efficacy at 24 h (FIGS. 27 and 28). […] Lastly, the levels of cytokines (TNF-α, IFN-γ, IL-2, IL-6, IL-4, IL-10, GM-CSF and IL-1β) were analyzed by Luminex at assay endpoint to assess the impact of the different treatments on TCB-induced cytokine release (FIGS. 32 and 33).
(§4) At 24 hours, tumor cell killing was measured by flow cytometry by exclusion of dead CTV cells. The supernatants were collected and cytokines were measured by Luminex.

[5] = tested on: MAGEA4-TCB-induced cytokine release; test: MAGEA4-TCB-induced cytokine release; type: cell-based; settings: 8 nM MAGEA4-TCB; 72 hours; with increasing concentrations
Experimental: FIG. 45. Effect of escalating concentrations (c) of ruxolitinib on IFN-γ (A), IL-2 (B), TNF-α (C), GM-CSF (D), IL-6 (E), IL-1β (F), IL-8 (G), MCP-1 (H) and IL-10 (I) levels induced by 8 nM MAGEA4-TCB. At 72 hours, the supernatants were collected and cytokines were analyzed by cytometric bead array (CBA). Mean of technical replicates+/−SD for 1 representative donor.
FIG. 47. […] At 72 hours, the supernatants were collected and cytokines were analyzed by CBA. Mean of technical replicates+/−SD for 1 representative donor.
The effect of ruxolitinib on TCB-induced tumor cell killing and cytokine release was assessed using an additional TCB, the MAGEA4-TCB (SEQ ID NOs 37-56).

WSU DLCL2 tumor cells [6] = test: killing assay with PBMCs, CTV labelled WSU DLCL2 tumor cells and CD20-TCB; type: cell-based; settings: 24 h
Experimental: FIG. 13. In vitro killing assay set-up.
FIG. 14. […] At 24 hours, the tumor cells and PBMCs from technical replicates were pooled and stained with a LIVE/DEAD™ Near-IR dead cell dye to allow exclusion of dead CTV labelled WSU DLCL2 tumor cells by flow cytometry. Mean of n=3 donors+/−SEM.
A similar experiment was conducted with another TCB. WSU DLCL2 cells were co-cultured together with PBMCs in the presence of 1 nM CD20-TCB (SEQ ID NOs 4-11, 24-35), and escalating sirolimus doses ranging from 0 nM to 1000 nM (FIG. 13).
as §3, §4

[7] = tested on: A375 NucLight Red (NLR) target-cells; test: killing assay with PBMCs, A375 NLR target cells and MAGEA4-TCB (Incucyte); type: cell-based; settings: 8 nM MAGEA4-TCB; escalating inhibitor concentrations
[8] = tested on: CEA-TCB-induced cytokine release; test: CEA-TCB-induced cytokine release (Luminex, supernatants); settings: 10 nM CEA-TCB
Experimental: The levels of cytokines were measured by Luminex in the supernatants of the assay to determine the impact of the different compounds on CEA-TCB-induced cytokine release.

WSU DLCL2 tumor cells [9] = test: CD20-TCB killing assay, inhibitors added after 18 hours of activation: tumor cell killing; type: cell-based; settings: 100 nM added at 18 h
Experimental: as §1, §2

[10] = 66 h, fixed compound concentrations
[11] = 72 h, concentrations above 25 nM, reduced from ~45%
[12] = 1 nM CD20-TCB, three donors, between 18 hours and 44 hours
[13] = measured at 44 hours, escalating CD20-TCB

CO[C@H]1C[C@@H]2CC[C@@H](C)[C@@](O)(O2)C(=O)C(=O)N2CCCC[C@H]2C(=O)O[C@H]([C@H](C)C[C@@H]2CC[C@@H](OC(=O)C(C)(CO)CO)[C@H](OC)C2)CC(=O)[C@H](C)/C=C(\C)[C@@H](O)[C@@H](OC)C(=O)[C@H](C)C[C@H](C)/C=C/C=C/C=C/1C [temsirolimus, Temsirolimus]
T cell activation triggered by the TCB (CD4+ and CD8+ T cells [1]; summary statement, also for target cell killing): does not fully inhibit | CD25 and CD69 expression on CD4+ and CD8+ T cells (T cell activation) (CD4+ and CD8+ T cells [1]; [10]): milder impact | expression of CD69 on CD8+ T cells (CD4+ and CD8+ T cells [1]; 72 h): did not affect | expression of CD25 on CD4+ T cells (CD4+ and CD8+ T cells [1]; [11]): ~15% | expression of CD69 on CD4+ T cells (CD4+ and CD8+ T cells [1]; [11]): ~25% | expression of CD25 on CD8+ T cells (CD4+ and CD8+ T cells [1]; 72 h, concentrations above 25 nM, reduced from ~75% (everolimus: ~70%)): 40% | B cell depletion induced by CD20-TCB (percentage of CD19+ B cells among human CD45+ cells in peripheral blood) (CD19+ B cells): did not interfere; also recorded: minimally interfered | further release of IFN-γ, IL-2, IL-6 ([2]; 1 nM CD20-TCB, three donors): prevented further release | release of TNF-α and IL-1β ([2]; between 18 hours and 44 hours): to a lower extent | T cell activation (CD4+ and CD8+ T cells [3]; [12]): did not impact further | T cell activation (CD4+ and CD8+ T cells [3]; [13]): did not impact | CD20-TCB-induced cytokine release [4]: comparable effect to dexamethasone and dasatinib | levels of IFN-γ, IL-2, TNF-α, IL-8, IL-6, MCP-1 and IL-10 [5]: reduced | CD20-TCB-mediated target cell killing (WSU DLCL2 tumor cells [6]; 1 nM CD20-TCB, inhibitor 0 nM to 1000 nM): did not fully inhibit | killing of B cells (WSU DLCL2 tumor cells [6]; WSU cells with PBMCs, CD20-TCB, fixed compound concentrations): did neither prevent | MAGEA4-TCB induced tumor cell killing [7]: did not prevent | CEA-TCB induced cytokine release ([8]; even at the lowest doses tested): strongly downregulated; also recorded: strongly reduces | CEA-TCB-induced cytokine release [8, 10]: inhibited; also recorded: comparable to dexamethasone and dasatinib | CTV labelled WSU DLCL2 tumor cell killing (WSU DLCL2 tumor cells [9]; [12]): did not impact further | CTV labelled WSU DLCL2 tumor cell killing (WSU DLCL2 tumor cells [9]; [13]): did not impact
